Measurements published in ChEMBL document CHEMBL1201861, “Genomics of Drug Sensitity in Cancer screening data, Wellcome Trust Sanger Institute”.

How the values were obtained:
Test in all cases: cells
Format in all cases: functional, cell-based, Homo sapiens
CAL-54 = conditions: Homo sapiens, CAL-54;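 also: growth inhibition of CAL-54 cells, read out by a viability measurement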
Description: SANGER: Inhibition of human CAL-54 cell growth in a cell viability assay.

NCI-H64 = conditions: Homo sapiens, NCI-H64;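 also: growth inhibition of NCI-H64 cells, read out with a cell viability assay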
Description: SANGER: Inhibition of human NCI-H64 cell growth in a cell viability assay.

COLO-792 = conditions: Homo sapiens, COLO-792
Description: SANGER: Inhibition of human COLO-792 cell growth in a cell viability assay.

G-401 = conditions: Homo sapiens, G-401
Description: SANGER: Inhibition of human G-401 cell growth in a cell viability assay.

NB1 = conditions: Homo sapiens, NB1;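 also: reduction of NB1 cell proliferation, read out with a viability assay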
Description: SANGER: Inhibition of human NB1 cell growth in a cell viability assay.

NCI-H2122 = conditions: Homo sapiens, NCI-H2122;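 also: growth inhibition of the cells, read out with a cell viability assay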
Description: SANGER: Inhibition of human NCI-H2122 cell growth in a cell viability assay.

GMS-10 = conditions: Homo sapiens, GMS-10;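 also: growth inhibition of GMS-10 cells, read out as cell viability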
Description: SANGER: Inhibition of human GMS-10 cell growth in a cell viability assay.

EHEB = conditions: Homo sapiens, EHEB;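 also: growth inhibition of human EHEB cells, read out with a cell viability assay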
Description: SANGER: Inhibition of human EHEB cell growth in a cell viability assay.

NCI-H2196 = conditions: Homo sapiens, NCI-H2196;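 also: cell viability assay used as the readout of growth inhibition in NCI-H2196 cells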
Description: SANGER: Inhibition of human NCI-H2196 cell growth in a cell viability assay.

HT55 = conditions: Homo sapiens, HT55;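 also: cell viability readout measuring growth inhibition of human HT55 cells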
Description: SANGER: Inhibition of human HT55 cell growth in a cell viability assay.

HN = conditions: Homo sapiens, HN
Description: SANGER: Inhibition of human HN cell growth in a cell viability assay.

NCI-H1623 = conditions: Homo sapiens, NCI-H1623;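 also: cell viability assay used as the read-out for growth inhibition of NCI-H1623 cells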
Description: SANGER: Inhibition of human NCI-H1623 cell growth in a cell viability assay.

OE19 = conditions: Homo sapiens, OE19;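 also: growth inhibition of OE19 cells, measured through a cell viability read-out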
Description: SANGER: Inhibition of human OE19 cell growth in a cell viability assay.

NCI-H522 = conditions: Homo sapiens, NCI-H522;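 also: cell viability assay measuring growth inhibition of human NCI-H522 cells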
Description: SANGER: Inhibition of human NCI-H522 cell growth in a cell viability assay.

CaR-1 = conditions: Homo sapiens, CaR-1;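 also: growth inhibition of human CaR-1 cancer cells, read out with a cell viability assay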
Description: SANGER: Inhibition of human CaR-1 cell growth in a cell viability assay.

KYSE-180 = conditions: Homo sapiens, KYSE-180;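 also: growth inhibition of KYSE-180 cells, read out with a cell viability assay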
Description: SANGER: Inhibition of human KYSE-180 cell growth in a cell viability assay.

FaDu = conditions: Homo sapiens, FaDu;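 also: cell viability readout of growth inhibition in FaDu cells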
Description: SANGER: Inhibition of human FADU cell growth in a cell viability assay.

Capan-2 = conditions: Homo sapiens, Capan-2;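 also: Capan-2 cell growth inhibition, read out with a viability assay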
Description: SANGER: Inhibition of human Capan-2 cell growth in a cell viability assay.

KYSE-450 = conditions: Homo sapiens, KYSE-450;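 also: cell growth inhibition measured by a viability assay in human KYSE-450 cells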
Description: SANGER: Inhibition of human KYSE-450 cell growth in a cell viability assay.

T-24 = conditions: Homo sapiens, T-24;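 also: growth inhibition of T-24 cells, read out with a cell viability assay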
Description: SANGER: Inhibition of human T-24 cell growth in a cell viability assay.

HOS = conditions: Homo sapiens, HOS;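 also: growth inhibition of human HOS cells, read out with a cell viability assay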
Description: SANGER: Inhibition of human HOS cell growth in a cell viability assay.

CAL-12T = conditions: Homo sapiens, CAL-12T;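 also: growth inhibition of human CAL-12T cells, read out with a cell viability assay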
Description: SANGER: Inhibition of human CAL-12T cell growth in a cell viability assay.

MDA-MB-157 = conditions: Homo sapiens, MDA-MB-157
Description: SANGER: Inhibition of human MDA-MB-157 cell growth in a cell viability assay.

NCI-H2141 = conditions: Homo sapiens, NCI-H2141;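 also: growth inhibition of human NCI-H2141 cells, read out with a cell viability assay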
Description: SANGER: Inhibition of human NCI-H2141 cell growth in a cell viability assay.

NCI-H460 = conditions: Homo sapiens, NCI-H460;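 also: cell viability assay scoring growth inhibition of human NCI-H460 cells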
Description: SANGER: Inhibition of human NCI-H460 cell growth in a cell viability assay.

RVH-421 = conditions: Homo sapiens, RVH-421
Description: SANGER: Inhibition of human RVH-421 cell growth in a cell viability assay.

DMS-153 = conditions: Homo sapiens, DMS-153
Description: SANGER: Inhibition of human DMS-153 cell growth in a cell viability assay.

DMS-273 = conditions: Homo sapiens, DMS-273
Description: SANGER: Inhibition of human DMS-273 cell growth in a cell viability assay.

Hs-578T = conditions: Homo sapiens, Hs-578T
Description: SANGER: Inhibition of human Hs-578-T cell growth in a cell viability assay.

SNU-16 = conditions: Homo sapiens, SNU-16;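 also: growth inhibition of human SNU-16 cells, determined with a cell viability readout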
Description: SANGER: Inhibition of human NCI-SNU-16 cell growth in a cell viability assay.

ChaGo-K-1 = conditions: Homo sapiens, ChaGo-K-1;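 also: growth inhibition of ChaGo-K-1 cells, read out with a cell viability assay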
Description: SANGER: Inhibition of human ChaGo-K-1 cell growth in a cell viability assay.

NCI-H1792 = conditions: Homo sapiens, NCI-H1792;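 also: growth inhibition of human NCI-H1792 cells, read out as cell viability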
Description: SANGER: Inhibition of human NCI-H1792 cell growth in a cell viability assay.

SW-620 = conditions: Homo sapiens, SW-620;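 also: growth inhibition of human SW-620 cells, measured by a cell viability assay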
Description: SANGER: Inhibition of human SW620 cell growth in a cell viability assay.

WSU-NHL = conditions: Homo sapiens, WSU-NHL;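 also: growth inhibition of human WSU-NHL cells, read out with a cell viability assay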
Description: SANGER: Inhibition of human WSU-NHL cell growth in a cell viability assay.

NCI-H1693 = conditions: Homo sapiens, NCI-H1693;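 also: growth inhibition of the human cell line, read out with a cell viability assay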
Description: SANGER: Inhibition of human NCI-H1693 cell growth in a cell viability assay.

KARPAS-422 = conditions: Homo sapiens, KARPAS-422
Description: SANGER: Inhibition of human KARPAS-422 cell growth in a cell viability assay.

NCI-H1703 = conditions: Homo sapiens, NCI-H1703;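 also: growth inhibition of NCI-H1703 cells, read out via a cell viability assay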
Description: SANGER: Inhibition of human NCI-H1703 cell growth in a cell viability assay.

A2780 = conditions: Homo sapiens, A2780;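 also: growth inhibition of A2780 cells, read out with a cell viability assay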
Description: SANGER: Inhibition of human A2780 cell growth in a cell viability assay.

HCC1954 = conditions: Homo sapiens, HCC1954;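 also: growth inhibition of human HCC1954 cells, read out with a cell viability assay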
Description: SANGER: Inhibition of human HCC1954 cell growth in a cell viability assay.

HT-1080 = conditions: Homo sapiens, HT-1080
Description: SANGER: Inhibition of human HT-1080 cell growth in a cell viability assay.

COLO-680N = conditions: Homo sapiens, COLO-680N;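 also: cell viability assay used to measure inhibition of COLO-680N cell growth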
Description: SANGER: Inhibition of human COLO-680N cell growth in a cell viability assay.

SK-OV-3 = conditions: Homo sapiens, SK-OV-3;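 also: growth inhibition of SK-OV-3 human cells, read out with a cell viability assay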
Description: SANGER: Inhibition of human SK-OV-3 cell growth in a cell viability assay.

BC-3 = conditions: Homo sapiens, BC-3;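 also: cell viability assay measuring growth inhibition of human BC-3 cells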
Description: SANGER: Inhibition of human BC-3 cell growth in a cell viability assay.

LU-165 = conditions: Homo sapiens, LU-165
Description: SANGER: Inhibition of human LU-165 cell growth in a cell viability assay.

MC-IXC = conditions: Homo sapiens, MC-IXC;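 also: growth inhibition of MC-IXC cells, read out with a cell viability assay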
Description: SANGER: Inhibition of human MC-IXC cell growth in a cell viability assay.

UMUC3 = conditions: Homo sapiens, UMUC3;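 also: growth inhibition of human UM-UC-3 cells, read out with a cell viability assay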
Description: SANGER: Inhibition of human UM-UC-3 cell growth in a cell viability assay.

Measured: IC50

Oc1ccc2ccccc2c1SSc1c(O)ccc2ccccc12
18.6 µM: HT-1080
7.84 µM: KARPAS-422
21.9 µM: NB1
4.5 µM: HOS
5.64 µM: CAL-12T
28.4 µM: A2780
8.56 µM: EHEB
5.52 µM: WSU-NHL
7.53 µM: G-401
> 32 µM: all other assays above
